Entries after “also recorded” stand apart in the source; their conditions may differ. Where a SMILES comes first, the peptide text is derived from it. [ ]: non-standard residue; d: D form. Hyp = O=C(O)[C@@H]1C[C@@H](O)CN1
Tested on: cytokine and chemokine release in human peripheral blood mononuclear cells (hPBMCs)
Test: Luminex multiplex, 30 cytokines and chemokines, LPS stimulated hPBMCs (Example 9, Study 2), whole panel
Type: cell-based
Details: for LPS-induced pro-inflammatory cytokines and chemokines, whole panel (in words): LPS 5 ug/mL 24 hrs, 100 uM to 1 nM
Method: Human PBMCs frozen purchased from ATCC in a cryo-preservative were thawed, washed with Hank's Balanced Salt Solution containing 10% fetal bovine serum, and seeded onto a 24-well plate at a density of 0.5×10^6 cells/well with culture RPMI media containing 10% fetal bovine serum in growth media in a 24 well plate for 24 hrs and maintained at 37° C. in an atmosphere of 95% air and 5% CO2. At the end of 24 hr culture, cells are pretreated with YY-101, YDE-011 and YDE-043 or reference compound, Xiidra® at various concentrations for 2 h before stimulation. An equal volume of 0.5% DMSO is used as a vehicle control. Then, the cells are treated with LPS. Supernatants from treated cells are harvested at 24 hr post-LPS treatment and placed in 96 well for Luminex cytokine & chemokine profiling using a Luminex 200 multiplex assay.
Human PBMCs frozen in a cryopreserve was thawed, washed with Hank's Balanced Salt Solution containing 10% Fetal bovine serum, and seeded onto a 24-well plate at a density of 0.5×10^6 cells/well with culture RPMI media containing 10% Fetal bovine serum in growth media in a 24 well plate for 24 hrs and maintained at 37° C. in an atmosphere of 95% air and 5% CO2.
Treatment Human PBMCs were pretreated with YY-101, YDE-011 and YDE-043 or reference compound; Xiidra® at various concentration (ranging from 1 nM to 100 uM) for 2 h before stimulation. An equal volume of 0.5% DMSO was used as a vehicle control. Then, the cells were treated with LPS at 5 ug/ml. The supernatants from treated cells were harvested at 24 h and placed in a 96 well for Luminex cytokine & chemokine profiling using a Luminex 200 multiplex assay (Luminex; R&D system, USA).
The main study arm with triplicate wells per group in a 24-well plate: • 1. Blank • 2. PBMC: 0.5% DMSO • 3. PBMC+LPS (5 ug/ml) • 4. PBMC+YY-101 100 uM • 5. PBMC+YY-101 10 uM • 6. PBMC+YY-101 1 uM • 7. PBMC+YY-101 0.1 uM • 8. PBMC+YY-101 0.01 uM • 9. PBMC+LPS (5 ug/ml)+Xiidra®100 uM • 10. PBMC+LPS (5 ug/ml)+Xiidra® 10 uM • 11. PBMC+LPS (5 ug/ml)+Xiidra® 1 uM • 12. PBMC+LPS (5 ug/ml)+Xiidra®0.1 uM • 13. PBMC+LPS (5 ug/ml)+Xiidra®0.01 uM • 14. PBMC+LPS (5 ug/ml)+Xiidra®0.001 uM • 15. PBMC+LPS (5 ug/ml)+YY-101 100 uM • 16. PBMC+LPS (5 ug/ml)+YY-101 10 uM • 17. PBMC+LPS (5 ug/ml)+YY-101 1 uM • 18. PBMC+LPS (5 ug/ml)+YY-101 0.1 uM • 19. PBMC+LPS (5 ug/ml)+YY-101 0.01 uM • 20. PBMC+LPS (5 ug/ml)+YY-101 0.001 uM • 21. PBMC+LPS (5 ug/ml)+YDE-011 100 uM • 22. PBMC+LPS (5 ug/ml)+YDE-011 10 uM • 23. PBMC+LPS (5 ug/ml)+YDE-011 1 uM • 24. PBMC+LPS (5 ug/ml)+YDE-011 0.1 uM • 25. PBMC+LPS (5 ug/ml)+YDE-011 0.01 uM • 26. PBMC+LPS (5 ug/ml)+YDE-011 0.001 uM • 27. PBMC+LPS (5 ug/ml)+YDE-043 100 uM • 28. PBMC+LPS (5 ug/ml)+YDE-043 10 uM • 29. PBMC+LPS (5 ug/ml)+YDE-043 1 uM • 30. PBMC+LPS (5 ug/ml)+YDE-043 0.1 uM • 31. PBMC+LPS (5 ug/ml)+YDE-043 0.01 uM • 32. PBMC+LPS (5 ug/ml)+YDE-043 0.001 uM
Multiplex assay was used to measure 30 cytokines and chemokines. The 1:2, 1:10 and 1:200 diluted cell supernatant and serial dilution of the standard were dispensed into a 96 well plate at 50 ul/well. Then, the pre-mixed cocktail of antibody-coated magnetic beads was dispensed at 50 ul/well and incubated at room temperature for 2 h in a horizontal orbital microplate shaker at 800±500 rpm. The beads were washed using a magnetic device to prevent loss. […] The data was calculated with a standard five-parameter logistic nonlinear regression analysis of the data (xPonent software 4.2, USA). […]

Row | SMILES | LPS-induced pro-inflammatory cytokines and chemokines, whole panel (in words) | LPS-induced pro-inflammatory cytokines and chemokines, whole panel (in words) (listed as YDE043) | basal levels of cytokine/chemokine production (in words) (no LPS, up to 100 μM)
1 | CC(C)C[C@H](NC(=O)[C@H](CCC(N)=O)NC(=O)CNC(=O)[C@@H]1C[C@@H](O)CN1)C(=O)NCC(=O)O [YDE-043] (H-[Hyp]GQLG-OH; N-terminus and C-terminus assumed) | effectively and potently reduced | more potent and effective immunomodulators | –
2 | CC(C)C[C@H](NC(=O)CNC(=O)[C@H](CC(C)C)NC(=O)[C@H](CCC(N)=O)NC(=O)CNC(=O)[C@@H]1C[C@@H](O)CN1)C(=O)N[C@@H](C)C(=O)NCC(=O)N1CCC[C@H]1C(=O)N[C@@H](CCCCN)C(=O)O [YDE-011] (H-[Hyp]GQLGLAGPK-OH) | effectively and potently reduced; also recorded: more potent and effective immunomodulators | – | –
3 | CC(C)C[C@H](NC(=O)CNC(=O)[C@H](CC(=O)O)NC(=O)[C@H](CCC(N)=O)NC(=O)CNC(=O)[C@@H]1C[C@@H](O)CN1)C(=O)N[C@@H](C)C(=O)NCC(=O)N1CCC[C@H]1C(=O)N[C@@H](CCCCN)C(=O)O [YY-101] (H-[Hyp]GQDGLAGPK-OH; N-terminus and C-terminus assumed) | effectively and potently reduced | – | didn't affect the basal levels of most of cytokine/chemokine production; also recorded: didn't affect the basal levels of cytokine production except TIMP-1

— patent US20230146455A1, “TREATMENT OF INFLAMMATORY DISEASES WITH PEPTIDES AND PHARMACEUTICAL COMPOSITIONS” (Yuyu Pharma, Inc., priority 2020, published 2023)
